{
  "source": "paper PMC8317065",
  "about": "“UPLC-MS/MS Method for Analysis of Endocannabinoid and Related Lipid Metabolism in Mouse Mucosal Tissue” (Frontiers in Physiology, 2021)",
  "test_system": "MAG biosynthesis (DGL)",
  "test": "THL oral gavage: levels of MAGs in jejunum mucosa, lung and plasma",
  "type": "in vivo, mouse",
  "description": "Adult C57BL/6J male mice were food-deprived for 24 h prior to harvest with ad libitum access to water. To prevent coprophagia, animals were maintained on elevated wire-bottom cages for a 72-hour acclimation period and during the 24-hour food deprivation. One hour prior to harvest, mice received an oral gavage (100 μL of 10 mg/mL) of the DGL inhibitor, THL, in polyethylene glycol (PEG) or PEG alone as control. Jejunum intestinal epithelium and lungs were harvested as described above (see section “Tissue Harvest and Preparation for Enzyme Assays”).\nFrozen tissue samples were weighed and homogenized in 1.0 mL of methanol containing the internal standards [^2H5]-2-AG (500 pmol), [^2H4]-AEA (1 pmol), and [^2H4]-OEA (10 pmol). Lipids were extracted using chloroform (2.0 mL) prior to being washed with 1.0 mL 0.2-micron ultra-purified water. Following centrifugation (1,500 × g, 15 min, 4°C), the lower organic phase was collected and dried under N2 steam (99.998% pure). A second chloroform wash (1.0 mL) was then performed followed by another centrifugation (1,500 × g, 15 min, 4°C) and collection of the lower phase. Samples were reconstituted in 2.0 mL of chloroform and purified via open-bed silica gel column chromatography. Columns were washed with a 9:1 chloroform:methanol mixture to elute MAGs and FAEs for collection. Collected eluates were dried under N2 steam (99.998% pure) and resuspended in 0.2 mL of methanol:chloroform (1:1) prior to analysis via UPLC-MS/MS (see section “Quantitation of MAGs and FAEs”).\nData was acquired using equipment described above (see section “UPLC-MS/MS Detection of Analytes”) and using the elution protocol described above (see section “Quantitation of MAG Biosynthetic Enzyme Activity Assay Products”). Cone voltage and collision energy for each analyte are as follows, respectively: AEA = 30 v, 14 v; [^2H4]-AEA = 26 v, 16v; OEA = 28 v, 16 v; [^2H4]-OEA = 48 v, 14 v; DHEA = 30 v, 50 v; 2-AG (20:4) = 30 v, 12 v; [^2H5]-2-AG = 25 v, 44v; 2-DG (22:6) = 34 v, 14 v; 2-PG (16:0) = 18 v, 10 v; 2-OG (18:1) = 42 v, 10 v; 2-LG (18:2) = 30 v, 10 v. MS/MS detection was in positive ion mode and capillary voltage set at 0.1 kV. Extracted ion chromatograms were used to quantify AEA (m/z = 348.3 > 62.0), [^2H4]-AEA (m/z = 352.3 > 66.1), OEA (m/z = 326.4 > 62.1), [^2H4]-OEA (m/z = 330.4 > 66.0), DHEA (m/z = 372.3 > 91.0), 2-AG (m/z = 379.3 > 287.3), [^2H5]-2-AG (m/z = 384.3 > 93.4), 2-DG (m/z = 403.3 > 311.1), 2-PG (m/z = 331.3 > 239.3), 2-OG (m/z = 357.4 > 265.2), and 2-LG (m/z = 355.3 > 263.3). Quantitation occurred using a stable isotope dilution method to detect protonated adducts of the ions [M + H] + in MRM mode. Acyl migration is known to occur in many MAG species following silica-gel purification, therefore the sum of 1-AG and 2-AG, 1-PG and 2-PG, 1-OG and 2-OG, and 1-DG and 2-DG are reported ([Stella et al., 1997]). The established lower limit of quantitation (LLOQ: signal to noise ratio >10) for 2-AG, 2-DG, 2-PG, 2-OG, and 2-LG was 0.5 pmol. The LLOQ for AEA, OEA, and DHEA was 0.008 pmol.",
  "key": {"[1]": {"settings": "THL 1 mg oral, 1 h prior to tissue harvest"}},
  "data": [
    {"compound": "CCCCCCCCCCC[C@@H](C[C@@H]1OC(=O)[C@H]1CCCCCC)OC(=O)[C@H](CC(C)C)NC=O", "note": "[THL, tetrahydrolipstatin]", "values": [
      {"measurement": "2-LG level in lung", "setting": "THL 1 mg oral gavage 1 h prior to harvest, vehicle 0.51 ± 0.10", "result": "1.13 ± 0.35", "unit": "nmol/g"},
      {"measurement": "2-DG level in lung", "setting": "THL 1 mg oral gavage 1 h prior to harvest, vehicle 1.17 ± 0.07", "result": "1.02 ± 0.07", "unit": "nmol/g"},
      {"measurement": "2-OG level in lung", "setting": "THL 1 mg oral gavage 1 h prior to harvest, vehicle 1.81 ± 0.13", "result": "2.25 ± 0.37", "unit": "nmol/g"},
      {"measurement": "2-OG level in plasma", "setting": "THL 1 mg oral gavage 1 h prior to harvest, vehicle 2.71 ± 0.68", "result": "1.53 ± 0.22", "unit": "pmol/mL"},
      {"measurement": "2-PG level in lung", "setting": "THL 1 mg oral gavage 1 h prior to harvest, vehicle 3.15 ± 0.26", "result": "2.51 ± 0.15", "unit": "nmol/g"},
      {"measurement": "2-AG level in lung", "setting": "THL 1 mg oral gavage 1 h prior to harvest, vehicle 4.47 ± 0.44", "result": "3.73 ± 0.37", "unit": "nmol/g"},
      {"measurement": "2-AG level in plasma", "setting": "THL 1 mg oral gavage 1 h prior to harvest, vehicle 31.59 ± 3.93", "result": "29.34 ± 2.18", "unit": "pmol/mL"},
      {"measurement": "2-DG level in plasma", "setting": "THL 1 mg oral gavage 1 h prior to harvest, vehicle 44.25 ± 11.63", "result": "32.82 ± 1.67", "unit": "pmol/mL"},
      {"measurement": "2-PG level in plasma", "setting": "THL 1 mg oral gavage 1 h prior to harvest, vehicle 46.63 ± 4.97", "result": "51.99 ± 9.87", "unit": "pmol/mL"},
      {"measurement": "2-LG level in plasma", "setting": "THL 1 mg oral gavage 1 h prior to harvest, vehicle 156.32 ± 27.64", "result": "105.12 ± 11.41", "unit": "pmol/mL"},
      {"measurement": "effect on levels of MAGs in lung vs vehicle", "setting": "[1]", "result": "no significant changes"},
      {"measurement": "effect on plasma MAGs vs vehicle", "setting": "[1]", "result": "No significant changes"},
      {"measurement": "effect on levels of all MAGs in jejunum mucosa vs vehicle", "setting": "THL 1 mg oral, 1 h prior to tissue harvest, 24 h food deprived mice", "result": "reduced"},
      {"measurement": "2-DG level in jejunum mucosa", "setting": "mice food deprived 24 h, THL 1 mg oral gavage 1 h prior to harvest, vehicle 7.53 ± 1.40", "result": "0.85 ± 0.13", "unit": "nmol/g"},
      {"measurement": "2-PG level in jejunum mucosa", "setting": "mice food deprived 24 h, THL 1 mg oral gavage 1 h prior to harvest, vehicle 13.52 ± 2.60", "result": "4.91 ± 0.51", "unit": "nmol/g"},
      {"measurement": "2-AG level in jejunum mucosa", "setting": "mice food deprived 24 h, THL 1 mg oral gavage 1 h prior to harvest, vehicle 45.81 ± 7.02", "result": "8.04 ± 1.52", "unit": "nmol/g"},
      {"measurement": "2-OG level in jejunum mucosa", "setting": "mice food deprived 24 h, THL 1 mg oral gavage 1 h prior to harvest, vehicle 100.71 ± 28.93", "result": "5.56 ± 1.10", "unit": "nmol/g"},
      {"measurement": "2-LG level in jejunum mucosa", "setting": "mice food deprived 24 h, THL 1 mg oral gavage 1 h prior to harvest, vehicle 194.08 ± 40.11", "result": "24.61 ± 7.48", "unit": "nmol/g"}
    ]}
  ]
}
